Measurements: US8008487B2, “Substituted thieno[2,3-D]pyrimidines as fungicides” (priority 2004, dated 2011)

Key:
Assay type in all cases: in vivo
[1] = system: Puccinia recondita tritici; assay: Leaf Rust of Wheat (PUCCRT), whole-plant fungicide test; details: one-day protectant test; for pest or weed control at 100 ppm / pest or weed control at 200 ppm: Puccinia recondita, 24 h, read-out: PUCCRT percent control of disease; for pest or weed control at 100 ppm: 100 ppm (footnote a); for pest or weed control at 200 ppm: foliar; for pest or weed control at 200 ppm / PUCCRT percent control of disease: 200 ppm on foliage
Leptosphaeria nodorum = assay: Glume Blotch of Wheat (LEPTNO), whole-plant fungicide test; details: one-day protectant test; for pest or weed control at 100 ppm / pest or weed control at 200 ppm: Parastagonospora nodorum, 24 h, read-out: LEPTNO percent control of disease; for pest or weed control at 100 ppm: 100 ppm (footnote a); for pest or weed control at 200 ppm: foliar; for pest or weed control at 200 ppm / LEPTNO percent control of disease: 200 ppm on foliage
Magnaporthe grisea = assay: whole plant or invertebrate; details: for pest or weed control at 200 ppm: Pyricularia oryzae, in Oryza sativa, foliar, 24 h, read-out: PYRIOR percent control of disease, 200 ppm on foliage, rice, one-day protectant test; for PYRIOR percent control of disease: 200 ppm on foliage, rice, one-day protectant test
Phytophthora infestans = assay: whole plant or invertebrate; details: for pest or weed control at 200 ppm: Phytophthora infestans, in Solanum lycopersicum, foliar, 24 h, read-out: PHYTIN percent control of disease, 200 ppm on foliage, tomato, one-day protectant test; for PHYTIN percent control of disease: 200 ppm on foliage, tomato, one-day protectant test
Erysiphe cichoracaerum = assay: Cucumber Powdery Mildew (ERYSCI), whole-plant fungicide test; details: 200 ppm on foliage, one-day protectant test; for pest or weed control at 200 ppm: Erysiphe, foliar, 24 h, read-out: ERYSCI percent control of disease
Colletotricum lagenarium = assay: Cucumber Anthracnose (COLLLA), whole-plant fungicide test; details: 200 ppm on foliage, one-day protectant test; for pest or weed control at 200 ppm: Cucumis sativus, foliar, 24 h, read-out: COLLLA percent control of disease

| SMILES | pest or weed control at 100 ppm [1] [%] | pest or weed control at 100 ppm (Leptosphaeria nodorum) [%] | pest or weed control at 200 ppm [1] [%] | pest or weed control at 200 ppm (Magnaporthe grisea) [%] | pest or weed control at 200 ppm (Phytophthora infestans) [%] | pest or weed control at 200 ppm (Leptosphaeria nodorum) [%] | pest or weed control at 200 ppm (Erysiphe cichoracaerum) [%] | pest or weed control at 200 ppm (Colletotricum lagenarium) [%] | PUCCRT percent control of disease [1] | PYRIOR percent control of disease (Magnaporthe grisea) | PHYTIN percent control of disease (Phytophthora infestans) | LEPTNO percent control of disease (Leptosphaeria nodorum) | ERYSCI percent control of disease (Erysiphe cichoracaerum) | COLLLA percent control of disease (Colletotricum lagenarium) |
| --- | --- | --- | --- | --- | --- | --- | --- | --- | --- | --- | --- | --- | --- | --- |
| CC(Nc1ncnc2scc(Cl)c12)c1ccc2oc(CC(C)(C)C)nc2c1 (stereo not drawn) [Compound 1a] | 80 to 100 | 50 to 79 |  |  |  |  |  |  |  |  |  |  |  |  |
| Clc1csc2ncnc(NCCc3ccc4ccccc4c3)c12 [Compound 2a] |  |  | 80 to 100 | 80 to 100 | 80 to 100 | 0 to 49 | 80 to 100 | 0 to 49 |  |  |  |  |  |  |
| CC(Nc1ncnc2scc(Cl)c12)c1cccc2ccccc12 (stereo not drawn) [Compound 3a] |  |  | 80 to 100 | 80 to 100 | 0 to 49 | 0 to 49 | 80 to 100 | 0 to 49 |  |  |  |  |  |  |
| CC(C)(C)OC(=O)c1ccc(CNc2ncnc3scc(Cl)c23)cc1 [Compound 4a] |  |  | 0 to 49 | 50 to 79 | 0 to 49 | 0 to 49 | 0 to 49 | 0 to 49 |  |  |  |  |  |  |
| CC(Nc1ncnc2scc(Cl)c12)c1ccc(N2CCOCC2)cc1 (stereo not drawn) [Compound 7a] |  |  | 80 to 100 | 80 to 100 | 80 to 100 | 0 to 49 | 80 to 100 | 50 to 79 |  |  |  |  |  |  |
| Clc1csc2ncnc(NCCc3ccc(N4CCOCC4)cc3)c12 [Compound 8a] | 80 to 100 | 50 to 79 |  |  |  |  |  |  |  |  |  |  |  |  |
| CC(Nc1ncnc2scc(Cl)c12)c1cnccn1 (stereo not drawn) [Compound 23] |  |  | 80 to 100 | 50 to 79 | 0 to 49 | 0 to 49 | 80 to 100 | 0 to 49 |  |  |  |  |  |  |
| CC(C)c1ccc(C(C)Nc2ncnc3scc(Cl)c23)cc1 (stereo not drawn) [Compound 24] |  |  |  |  |  |  |  | 0 to 49 | * (* is 0-49 percent control of disease) | ** (** is 50-79 percent control of disease) | * (* is 0-49 percent control of disease) | * (* is 0-49 percent control of disease) | * (* is 0-49 percent control of disease) |  |
| CC(C)c1ccc(C(C)Nc2ncnc3scc(Cl)c23)cc1 (stereo not drawn) [Compound 25] |  |  |  |  |  |  |  |  | *** (*** is 80-100 percent control of disease) | *** (*** is 80-100 percent control of disease) | *** (*** is 80-100 percent control of disease) | *** (*** is 80-100 percent control of disease) | *** (*** is 80-100 percent control of disease) | * (* is 0-49 percent control of disease) |
| CC(Nc1ncnc2scc(Cl)c12)c1ccc(C(F)(F)F)cc1 (stereo not drawn) [Compound 26] |  |  | 80 to 100 | 80 to 100 | 0 to 49 | 80 to 100 | 80 to 100 | 0 to 49 |  |  |  |  |  |  |
| COc1ccc(C(C)Nc2ncnc3scc(Cl)c23)cc1 (stereo not drawn) [Compound 27] |  |  | 80 to 100 | 80 to 100 | 0 to 49 | 50 to 79 | 80 to 100 | 0 to 49 |  |  |  |  |  |  |
| COc1ccc(OCCNc2ncnc3scc(Cl)c23)cc1 [Compound 64] |  |  | 80 to 100 | 80 to 100 | 0 to 49 | 0 to 49 | 0 to 49 | 0 to 49 |  |  |  |  |  |  |
| CC(Nc1ncnc2scc(Br)c12)c1cnc(OCC(F)(F)F)nc1 (stereo not drawn) [Compound 67] |  |  | 80 to 100 | 0 to 49 | 0 to 49 | 0 to 49 | 0 to 49 | 0 to 49 |  |  |  |  |  |  |
| COc1ccc(C(C)Nc2ncnc3scc(I)c23)cc1 (stereo not drawn) [Compound 70, (5-Iodothieno[2,3-d]pyrimidin-4-yl)-[1-(4-methoxyphenyl)ethyl]amine] |  |  | 0 to 49 | 50 to 79 | 0 to 49 | 0 to 49 | 0 to 49 | 0 to 49 |  |  |  |  |  |  |
| COc1ncc(C(C)Nc2ncnc3scc(Cl)c23)s1 (stereo not drawn) [Compound 72] |  |  | 80 to 100 | 80 to 100 | 0 to 49 | 0 to 49 | 80 to 100 | 0 to 49 |  |  |  |  |  |  |
| CC(Nc1ncnc2scc(Cl)c12)c1ccc(OCC(F)(F)F)cc1 (stereo not drawn) [Compound 73] |  |  | 80 to 100 | 80 to 100 | 0 to 49 | 50 to 79 | 80 to 100 | 80 to 100 |  |  |  |  |  |  |
| CC(Nc1ncnc2scc(Cl)c12)c1ccc(OCC(F)F)nc1 (stereo not drawn) [Compound 74] |  |  | 80 to 100 | 80 to 100 | 0 to 49 | 80 to 100 | 80 to 100 | 80 to 100 |  |  |  |  |  |  |
| CC(Nc1ncnc2scc(Cl)c12)c1ccc(OCCF)nc1 (stereo not drawn) [Compound 75] |  |  | 80 to 100 | 80 to 100 | 0 to 49 | 0 to 49 | 80 to 100 | 50 to 79 |  |  |  |  |  |  |
| CCC(Nc1ncnc2scc(Cl)c12)c1ccc(OC)nc1 (stereo not drawn) [Compound 79] |  |  | 80 to 100 | 80 to 100 | 0 to 49 | 0 to 49 | 0 to 49 | 0 to 49 |  |  |  |  |  |  |
| CC(Nc1ncnc2scc(Cl)c12)c1cccnc1Cl (stereo not drawn) [Compound 80] |  |  | 80 to 100 | 80 to 100 | 0 to 49 | 0 to 49 | 80 to 100 | 50 to 79 |  |  |  |  |  |  |
| COCC1CC1C(C)Nc1ncnc2scc(Cl)c12 (stereo not drawn) [Compound 81] | 80 to 100 |  |  |  |  |  |  |  |  |  |  |  |  |  |
| CC(Nc1ncnc2scc(Cl)c12)c1ccc(OC(F)(F)F)cc1 (stereo not drawn) [Compound 82] |  |  | 80 to 100 |  | 0 to 49 | 0 to 49 | 80 to 100 | 0 to 49 |  |  |  |  |  |  |
| COc1cc(F)ccc1C(C)Nc1ncnc2scc(Cl)c12 (stereo not drawn) [Compound 83] |  |  | 80 to 100 |  | 0 to 49 | 0 to 49 | 80 to 100 | 0 to 49 |  |  |  |  |  |  |
| CC(Nc1ncnc2scc(Cl)c12)c1ccc(OCC(F)(F)F)nc1 (stereo not drawn) [Compound 84] | 80 to 100 |  |  |  |  |  |  |  |  |  |  |  |  |  |
| COc1ccc(COCC2CC2C(C)Nc2ncnc3scc(Cl)c23)cc1 (stereo not drawn) [Compound 85] |  |  | 80 to 100 |  | 80 to 100 | 0 to 49 | 80 to 100 | 0 to 49 |  |  |  |  |  |  |
| COc1ccc(OCC2CC2C(C)Nc2ncnc3scc(Cl)c23)cc1 (stereo not drawn) [Compound 86] |  |  | 80 to 100 | 80 to 100 | 0 to 49 | 50 to 79 | 80 to 100 | 80 to 100 |  |  |  |  |  |  |
